Measurements from patent publication US10709676B2 (GENEHEAL BIOTECHNOLOGY CO., LTD., priority 2016, dated 2020).

Molecular target: PAICS (Homo sapiens, UniProt P22234)
Settings: can reach; biochemical enzyme activity and cell biology experiments

Sequence of PAICS (P22234 whole entry): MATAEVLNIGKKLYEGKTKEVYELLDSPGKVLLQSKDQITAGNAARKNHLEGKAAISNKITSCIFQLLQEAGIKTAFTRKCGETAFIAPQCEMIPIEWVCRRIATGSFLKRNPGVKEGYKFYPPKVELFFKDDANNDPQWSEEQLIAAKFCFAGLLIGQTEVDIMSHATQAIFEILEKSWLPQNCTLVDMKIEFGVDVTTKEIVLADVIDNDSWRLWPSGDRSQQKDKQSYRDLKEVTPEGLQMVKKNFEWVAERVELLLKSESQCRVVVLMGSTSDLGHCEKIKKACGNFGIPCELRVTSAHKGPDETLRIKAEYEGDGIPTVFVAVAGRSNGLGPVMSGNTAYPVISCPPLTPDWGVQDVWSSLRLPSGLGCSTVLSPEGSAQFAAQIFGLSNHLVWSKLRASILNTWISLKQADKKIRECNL

`NCCCNCCCCNCCCN` [spermine, Spermine] was tested, and the “inhibition ratio against SAICAR accumulation” value was 71.1%.
